These results are taken from PMC8286348 (Biochemical and biophysical research communications, 2021).

Like-named read-outs stand apart in the source and are kept apart here.

For orientation: Ki means a measure of affinity in units of concentration, obtained from inhibition or displacement. Broadly, the IC50 is the concentration at which inhibition is half-maximal.

For data set [1] the following is noted: compared to 1; cited from earlier work.
The target in data set [2] is PR^S17. Briefly: Kinetic inhibition. The data set is classed as biochemical, HIV-1. The settings on record: read-out: Ki for PR^S17; FRET-substrate (BACHEM H-2992), 37°C, pH 5.6.
The test system of another data set is PR dimerization. The settings on record: relative to 1; cited from earlier work.
In data set [3] the target is PR^S17. The settings on record: read-out: Ki for PR^S17; clinical inhibitors; cited from earlier work.
Another data set has as its target HIV-1 protease (PR). The conditions noted are these: cited from earlier work.
The next data set has as its system HIV-1. The settings on record: read-out: antiviral IC50; MTT assay; cited from earlier work. A general note: Formazan colour is commonly taken as a measure of viable cells.

Turning to `CC(C)CN(C[C@@H](O)[C@H](Cc1cc(F)cc(F)c1)NC(=O)O[C@H]1C2COC3OCC1C3C2)S(=O)(=O)c1ccc2nc(NC3CC3)sc2c1` (stereo partly shown) [Compound 3, GRL-142], the “CNS penetration in vitro” value in data set [1] is “better CNS penetration in vitro compared to 1”. In addition, the Ki at PR^S17 [2] worked out at 17 ± 1.3 nM. Further, the “fold better inhibition of PR dimerization than 1” value with PR dimerization is on record as “around 1000 fold”.
In the case of `CC(C)CN(C[C@@H](O)[C@H](Cc1ccccc1)NC(=O)O[C@H]1CCOC1)S(=O)(=O)c1ccc(N)cc1` [amprenavir], the inhibitory constant (Ki) at PR^S17 [3] is 11 nM.
GRL-4410 [Compound 2]: the inhibition constant Ki is 0.0029 nM at HIV-1 protease (PR) and 15.8 ± 4.8 nM on PR^S17 [2]. In addition, the IC50 in the data set on HIV-1 is 2.4 nM.
